Reference: US20160326098A1, “Pharmaceutically Active Compound for Use as Anti-inflammatory Agent” (Pax Forschung GmbH, priority 2013, published 2016)

Tests used:
Type in all cases: in vivo
xanthine oxidase enzyme = assay: Xanthine oxidase enzyme activity in tissue, mice with gastric injury without inflammation; details: gastric and duodenal tissue, 1.11 mmol/kg, vs control group A, FIGS. 6a/6b
Method: The XOR activity was determined in the ultrafiltered, concentrated supernatant by fluorometric kinetic assay based on the conversion of pterine to isoxanthopterine in the presence (total XOR) or absence (xanthine oxidase activity) of the electron acceptor methylene blue.
First experiments regarding the effect of the compound of formula (I) and a pharmaceutical composition comprising the compound of formula (I) (clear aqueous solution of compound of formula (I) at pH 4.8), respectively, on gastric injury without inflammation were conducted on mice. 48 animals were randomly allocated into three groups. Group A (n=16) served as sham-operated controls. Samples of all animals were drawn on day 1 of the clinical tests. On day 2 the animals of group B (n=16) were force-fed acetylsalicylic acid (ASS) (1.11 mmol/kg body weight). Group C (n=16) was force-fed 1.11 mmol/kg body weight of the compound according to the invention. Group A only received the respective solvent (25% ethanol in water). One day after the gavage, additional samples were drawn. Fluorescence confocal endomicroscopy was performed to examine the microvasculature and morphologic changes of the mucosa of the distal colon, […] The effects were determined by way of measurement of body weight, blood gas analysation and biopsy. […]

[1] = Haematocrit in blood, rats with gastric injury without inflammation; details: 1.11 mmol/kg; for percentage of haematocrit in the blood / haematocrit level, low haematocrit data group (severe bleeding with plasma and cell loss): vs control group H; for percentage of haematocrit in the blood: FIG. 18; for haematocrit level, low haematocrit data group (severe bleeding with plasma and cell loss): FIG. 20; for haematocrit level, high haematocrit data group (bleeding with plasma loss): vs sham group H, FIG. 19
Method: The medicinal activity of the compound according to the invention and the pharmaceutical composition according to the invention was tested in a series of experiments performed on rats. The experiments were performed on male Sprague-Dawley rats (280-320 g) housed in plastic cages in a thermoneutral environment (21° C.±2° C.) with a 12 h dark-light cycle. The animals, fed on a normal diet with tap water ad libitum, were randomly allocated into experimental groups according to the feeding protocols.
Further experiments regarding the effect of a compound of formula (I) and a pharmaceutical composition comprising a compound of formula (I), respectively, on gastric injury without inflammation were conducted on rats. 15 animals were randomly allocated into three groups. Group H (n=5) served as sham-operated controls. Samples of all animals were drawn on day 1 of the clinical tests. On day 2 the animals of group I (n=5) were force-fed acetylsalicylic acid (ASS) (1.11 mmol/kg body weight). Group K (n=5) was force-fed 1.11 mmol/kg body weight of the compound according to the invention. Group H only received the respective solvent (25% ethanol in water). One day after the gavage, additional samples were drawn. Fluorescence confocal endomicroscopy was performed to examine the microvasculature and morphologic changes of the mucosa of the distal colon, and full-thickness tissue samples and venous blood samples were taken to determine the biochemical changes in the colon and plasma. The effects were determined by way of measurement of body weight, blood gas analysation and biopsy. ASS was chosen as a comparative example due to its structural similarity and its known activity as anti-inflammatory agent.
On the basis of the haematocrit measurements, the data can be divided into two groups:
a) high haematocrit level, indicating bleeding with plasma loss (FIG. 19); and b) low haematocrit level, indicating severe bleeding with plasma and cell loss (FIG. 20).

myeloperoxidase (MPO) = assay: Tissue myeloperoxidase activity, rats with gastric injury without inflammation; details: gastric and colon tissue, one day after 1.11 mmol/kg, vs control group H, FIGS. 23a/23b
Method: Colon biopsies kept on ice were homogenized in phosphate buffer (pH 7.4) containing 50 mM Tris-HCl (Reanal, Budapest, Hungary), 0.1 mM EDTA, 0.5 mM dithiothreitol, 1 mM phenylmethylsulfonyl fluoride, 10 μg/ml soybean trypsin inhibitor, and 10 μg/ml leupeptin (Sigma Aldrich GmbH, Munich, Germany). The homogenate was centrifuged at 4° C. for 20 minutes at 24,000 g, and the supernatant was loaded into centrifugal tubes (Amicon Centricon-100; 100,000-molecular-weight cutoff ultrafilter, Millipore Corporation, Bedford, Mass.). The activity of myeloperoxidase (MPO) was measured on the pellet of the homogenate.
The activity of MPO as a marker of tissue leukocyte infiltration was measured on the pellet of the homogenate. Briefly, the pellet was resuspended in K3PO4 buffer (0.05 M; pH 6.0) containing 0.5% hexa-1,6-bis-decyltriethylammonium bromide. After three repeated freeze-thaw procedures, the material was centrifuged at 4° C. for 20 minutes at 24,000 g, and the supernatant was used for MPO determination. […] The reaction led to the hydrogen peroxide-dependent oxidation of tetramethylbenzidine, which could be detected spectrophotometrically at 450 nm (UV-1601 spetrophotometer; Shimadzu, Kyoto, Japan). Myeloperoxidase activities were measured at 37° C.; the reaction was stopped after 5 minutes by the addition of 0.2 ml of H2SO4 (2 M), and the resulting data were referred to the protein content. […]

[2] = Body weight, rats with TNBS-induced colitis; details: two days after enema, one day after 1.11 mmol/kg, FIG. 27
Method: Colonic inflammation was induced by intracolonic administration of TNBS (2,4,6-trinitrobenzenesulfonic acid) (40 mg/kg in 0.25 ml of 25% aqueous ethanol) through an 8-cm-long soft plastic catheter under transient diethylether anesthesia. In the sham-operated groups, only the vehicle for TNBS was administered. The animals were deprived of food, but not water, for 12 h before the enemas.
The above-described clinical studies were repeated with animals having colitis which was induced as described above. […] Two days after the enema the effects of the treatment were determined by measurement of body weight, blood gas analysis and biopsy. […] Surgery was performed to allow registration of the hemodynamic parameters at 1 h intervals for 6 h (cardiac output [CO] data were measured only at the end of the experiments). […] In addition, fluorescence confocal endomicroscopy was performed to examine the microvasculature and morphologic changes of the mucosa of the distal colon, and full-thickness tissue samples and venous blood samples were taken to determine the biochemical changes in the colon and plasma.

colon inflammation = assay: Macroscopic score of colon inflammation, rats with TNBS-induced colitis; details: 1.11 mmol/kg, Morris score 0-4, untreated colitis group class 3 to 4, FIG. 29
Method: Colonic inflammation was induced by intracolonic administration of TNBS (2,4,6-trinitrobenzenesulfonic acid) (40 mg/kg in 0.25 ml of 25% aqueous ethanol) through an 8-cm-long soft plastic catheter under transient diethylether anesthesia. In the sham-operated groups, only the vehicle for TNBS was administered. The animals were deprived of food, but not water, for 12 h before the enemas. […] The other animals only received the respective solvent again. Two days after the enema the effects of the treatment were determined by measurement of body weight, blood gas analysis and biopsy. The animals were anesthetized two days after colitis induction. Surgery was performed to allow registration of the hemodynamic parameters at 1 h intervals for 6 h (cardiac output [CO] data were measured only at the end of the experiments). Intravital videomicroscopy was performed at the end of the experiments to visualize the serosal microcirculation 3 cm distal from the cecum. In addition, fluorescence confocal endomicroscopy was performed to examine the microvasculature and morphologic changes of the mucosa of the distal colon, and full-thickness tissue samples and venous blood samples were taken to determine the biochemical changes in the colon and plasma. […]

With `CC(=O)Oc1ccccc1C(=O)O` [ASS, acetylsalicylic acid, reference compound] the “activity of xanthine oxidase enzyme” value (xanthine oxidase enzyme) was “increased activity”, the “percentage of haematocrit in the blood” value [1] was “severe change in the haematocrit level” and the “haematocrit level, low haematocrit data group (severe bleeding with plasma and cell loss)” value [1] was “severe drop”. For the same compound, the “haematocrit level, high haematocrit data group (bleeding with plasma loss)” value [1] was “increase of the haematocrit level”, the “myeloperoxidase (MPO) activity” value (myeloperoxidase (MPO)) was “increased” and the “loss of body weight” value [2] was “severe loss in body weight”. For the same compound, the “macroscopic score of colon inflammation” value (colon inflammation) was “slightly less severe symptoms”.

With `CC(=O)Oc1ccccc1C(=O)NC(CO)(CO)CO` [compound according to the invention] the “activity of xanthine oxidase enzyme” value (xanthine oxidase enzyme) was “no such increase”, the “percentage of haematocrit in the blood” value [1] was “No change in the haematocrit level” and the “haematocrit level, low haematocrit data group (severe bleeding with plasma and cell loss)” value [1] was “no changes could be detected”. For the same compound, the “haematocrit level, high haematocrit data group (bleeding with plasma loss)” value [1] was “no change in the haematocrit level”, the “myeloperoxidase (MPO) activity” value (myeloperoxidase (MPO)) was “does not further enhance the inflammatory processes” and the “loss of body weight” value [2] was “No weight loss”. The “macroscopic score of colon inflammation” value (colon inflammation) was “only showed increased erythema”.
